Measurements: patent US11472857B2 (Purdue Research Foundation, priority 2015, dated 2022)
“Also recorded” adds a separate entry of the source.

Tested on: male Wistar rats
Assay: In vivo blood glucose elevation after s.c. injection
Design: species or system rat
Method: Rats were catheterized to enable collection of blood samples at various time points. The total blood glucose level was measured by withdrawing blood at regular intervals (5-120 min) and tested using [sequence] LITE (glucose test meters, Abbott, Chicago, Ill.).

| Substance | Maximum elevation in blood glucose (2.8 nmol/kg s.c.) [mg/dL] | Blood glucose elevation compared with native glucagon (7.1 nmol/kg s.c.) | Maximum increase in blood glucose (7.1 nmol/kg s.c.) [mg/dL] | Time of peak blood glucose (7.1 nmol/kg s.c.) [min] |
| --- | --- | --- | --- | --- |
| phospho-Ser16-glucagon | ~10 | activity comparable to that of native glucagon | ~50 | 20 |
| phospho-Tyr13-glucagon |  | response similar to that of phospho-Thr5-glucagon and phospho-Ser16-glucagon; also recorded: comparable to native glucagon |  |  |
| phospho-Thr7-glucagon |  | slower response and a somewhat lower blood glucose peak; also recorded: somewhat slower increase |  |  |
